Where two headings read alike, the source gives them in different places.
Key:
Caenorhabditis elegans = assay: Toxicity test, adult Caenorhabditis elegans, 96 well micro plate; type: in vivo; conditions: Caenorhabditis elegans
Procedure: Methodology: Toxicity tests were conducted using J2 juveniles of Meloidogyne incognita adult Caenorhabditis elegans collected from nematode-infested tomato plant roots and culture Petri plates, respectively. Test concentrations of 50, 100, 200, 300, or 400 ppm were prepared in 0.2% dimethylsulfoxide (DMSO) in tap water. Aliquots (300 microliters (ul)) were applied to a 96 well micro plate and a 20 ul aqueous solution containing nematodes was added. The number of nematodes in 20 ul ranged from 17 to 30. Micro plates were sealed with Parafilm™ and incubated at room temperature. Similar tests conducted with 0.2% DMSO in tap water served as controls. Nematode mortality was checked at 24, 48, 72, 120, and 168 hr after incubation. Nematodes that were motionless for 30 sec when observed under a stereomicroscope were considered paralyzed and included in mortality counts. Each concentration was replicated five times and mean percent mortality was calculated after correcting for control mortality using Abbott's formula.
Data Analysis: Mortality data were analyzed using PROC PROBIT (SAS) program and LC50 values were estimated.

[1] = tested on: Meloidogyne incognita eggs; assay: M. incognita egg hatching; type: in vivo
Procedure: Meloidogyne incognita (plant parasitic nematode) eggs were collected from tomato plant roots and were suspended in water. The solution was either diluted or concentrated to adjust the egg load to about 5000/ml. AT stock solutions prepared in DMSO and 300 ul of test solution was placed in a well, along with 20 ul of aqueous solution containing eggs. The number of eggs in 20 ul solution ranged from 115 to 143 (n=10). Each treatment (2, 5, 10, 20, or 40 ppm) was replicated 5 times. Microplates were sealed with Parafilm™ and incubated at room temperature. Similar tests conducted with 0.2% DMSO alone served as controls. Egg hatching was monitored at 24, 72, 120, and 168 hr after incubation. Both moving and non-moving nematodes were counted to arrive at the number of eggs hatched. Proportion of egg hatch was calculated as the number of juveniles divided by total number of eggs.
VSCC blockers effect on M. incognita egg hatching is shown in the following tables where % hatched is rounded to the nearest percentage point and where “% C*” is % hatch, normalized to control.

[2] = 24 h, read-out: Corrected Mortality (%)
[3] = 48 h, read-out: Corrected Mortality (%)
[4] = 72 h, read-out: Corrected Mortality (%)
[5] = 120 h, read-out: Corrected Mortality (%)
[6] = 168 h, read-out: Corrected Mortality (%)

Molecule `CC1(C2CCCC2)Cc2cc(OCC(=O)O)c(Cl)c(Cl)c2C1=O` (single isomer, unassigned; (+)) [IAA-94, (+)(2-cyclopentyl-6,7-dichloro-2-methyl-1-oxo-5-indanyloxy) acetic acid] has a mortality at 50 ppm (Caenorhabditis elegans; 24 h) of 8%, a mortality at 100 ppm (Caenorhabditis elegans; 24 h) of 14% and a mortality at 200 ppm (Caenorhabditis elegans; 24 h) of 17%. The mortality at 300 ppm (Caenorhabditis elegans; 24 h) was 21%, the mortality at 400 ppm (Caenorhabditis elegans; 24 h) was 24% and the mortality at 50 ppm (Caenorhabditis elegans; [2]) was 5%. For the same molecule, the mortality at 100 ppm (Caenorhabditis elegans; [2]) was 11%, the mortality at 200 ppm (Caenorhabditis elegans; [2]) was 14% and the mortality at 300 ppm (Caenorhabditis elegans; [2]) was 19%. For the same molecule, the mortality at 400 ppm (Caenorhabditis elegans; [2]) was 22%, the mortality at 50 ppm (Caenorhabditis elegans; 48 h) was 17% and the mortality at 100 ppm (Caenorhabditis elegans; 48 h) was 29%. For the same molecule, the mortality at 200 ppm (Caenorhabditis elegans; 48 h) was 38%, the mortality at 300 ppm (Caenorhabditis elegans; 48 h) was 43% and the mortality at 400 ppm (Caenorhabditis elegans; 48 h) was 48%. For the same molecule, the mortality at 50 ppm (Caenorhabditis elegans; [3]) was 13%, the mortality at 100 ppm (Caenorhabditis elegans; [3]) was 25% and the mortality at 200 ppm (Caenorhabditis elegans; [3]) was 35%. It also gave a mortality at 300 ppm (Caenorhabditis elegans; [3]) of 40%, a mortality at 400 ppm (Caenorhabditis elegans; [3]) of 45% and a mortality at 50 ppm (Caenorhabditis elegans; 72 h) of 35%. It also gave a mortality at 100 ppm (Caenorhabditis elegans; 72 h) of 44%, a mortality at 200 ppm (Caenorhabditis elegans; 72 h) of 64% and a mortality at 300 ppm (Caenorhabditis elegans; 72 h) of 71%. It also gave a mortality at 400 ppm (Caenorhabditis elegans; 72 h) of 77%, a mortality at 50 ppm (Caenorhabditis elegans; [4]) of 31% and a mortality at 100 ppm (Caenorhabditis elegans; [4]) of 40%. For the same molecule, the mortality at 200 ppm (Caenorhabditis elegans; [4]) was 62%, the mortality at 300 ppm (Caenorhabditis elegans; [4]) was 69% and the mortality at 400 ppm (Caenorhabditis elegans; [4]) was 76%. The mortality at 50 ppm (Caenorhabditis elegans; 120 h) was 58%, the mortality at 100 ppm (Caenorhabditis elegans; 120 h) was 70% and the mortality at 200 ppm (Caenorhabditis elegans; 120 h) was 90%. For the same molecule, the mortality at 300 ppm (Caenorhabditis elegans; 120 h) was 94%, the mortality at 400 ppm (Caenorhabditis elegans; 120 h) was 98% and the mortality at 50 ppm (Caenorhabditis elegans; [5]) was 53%. It also gave a mortality at 100 ppm (Caenorhabditis elegans; [5]) of 67%, a mortality at 200 ppm (Caenorhabditis elegans; [5]) of 89% and a mortality at 300 ppm (Caenorhabditis elegans; [5]) of 93%. The mortality at 400 ppm (Caenorhabditis elegans; [5]) was 98%, the mortality at 50 ppm (Caenorhabditis elegans; 168 h) was 81% and the mortality at 100 ppm (Caenorhabditis elegans; 168 h) was 94%. It also gave a mortality at 200 ppm (Caenorhabditis elegans; 168 h) of 99%, a mortality at 300 ppm (Caenorhabditis elegans; 168 h) of 100% and a mortality at 400 ppm (Caenorhabditis elegans; 168 h) of 100%. For the same molecule, the mortality at 50 ppm (Caenorhabditis elegans; [6]) was 78%, the mortality at 100 ppm (Caenorhabditis elegans; [6]) was 93% and the mortality at 200 ppm (Caenorhabditis elegans; [6]) was 99%. The mortality at 300 ppm (Caenorhabditis elegans; [6]) was 100%, the mortality at 400 ppm (Caenorhabditis elegans; [6]) was 100% and the “Eggs Hatched %” value ([1]; 2 ppm, 24 hr) was 10%. The “Eggs Hatched % C* (% hatch, normalized to control)” value ([1]; 2 ppm, 24 hr) was 100%, the “Eggs Hatched No.” value ([1]; 2 ppm, 24 hr) was 70 and the “Eggs Hatched %” value ([1]; 2 ppm, 72 hr) was 15%. For the same molecule, the “Eggs Hatched % C* (% hatch, normalized to control)” value ([1]; 2 ppm, 72 hr) was 94%, the “Eggs Hatched No.” value ([1]; 2 ppm, 72 hr) was 97 and the “Eggs Hatched %” value ([1]; 2 ppm, 120 hr) was 19%. For the same molecule, the “Eggs Hatched % C* (% hatch, normalized to control)” value ([1]; 2 ppm, 120 hr) was 86%, the “Eggs Hatched No.” value ([1]; 2 ppm, 120 hr) was 130 and the “Eggs Hatched %” value ([1]; 2 ppm, 168 hr) was 24%. The “Eggs Hatched % C* (% hatch, normalized to control)” value ([1]; 2 ppm, 168 hr) was 86%, the “Eggs Hatched No.” value ([1]; 2 ppm, 168 hr) was 161 and the “Eggs Hatched %” value ([1]; 5 ppm, 24 hr) was 10%. For the same molecule, the “Eggs Hatched % C* (% hatch, normalized to control)” value ([1]; 5 ppm, 24 hr) was 100%, the “Eggs Hatched No.” value ([1]; 5 ppm, 24 hr) was 66 and the “Eggs Hatched %” value ([1]; 5 ppm, 72 hr) was 13%. The “Eggs Hatched % C* (% hatch, normalized to control)” value ([1]; 5 ppm, 72 hr) was 81%, the “Eggs Hatched No.” value ([1]; 5 ppm, 72 hr) was 96 and the “Eggs Hatched %” value ([1]; 5 ppm, 120 hr) was 19%. The “Eggs Hatched % C* (% hatch, normalized to control)” value ([1]; 5 ppm, 120 hr) was 86%, the “Eggs Hatched No.” value ([1]; 5 ppm, 120 hr) was 128 and the “Eggs Hatched %” value ([1]; 5 ppm, 168 hr) was 22%. For the same molecule, the “Eggs Hatched % C* (% hatch, normalized to control)” value ([1]; 5 ppm, 168 hr) was 79%, the “Eggs Hatched No.” value ([1]; 5 ppm, 168 hr) was 161 and the “Eggs Hatched %” value ([1]; 10 ppm, 24 hr) was 9%. The “Eggs Hatched % C* (% hatch, normalized to control)” value ([1]; 10 ppm, 24 hr) was 90%, the “Eggs Hatched No.” value ([1]; 10 ppm, 24 hr) was 64 and the “Eggs Hatched %” value ([1]; 10 ppm, 72 hr) was 13%. For the same molecule, the “Eggs Hatched % C* (% hatch, normalized to control)” value ([1]; 10 ppm, 72 hr) was 81%, the “Eggs Hatched No.” value ([1]; 10 ppm, 72 hr) was 88 and the “Eggs Hatched %” value ([1]; 10 ppm, 120 hr) was 18%. For the same molecule, the “Eggs Hatched % C* (% hatch, normalized to control)” value ([1]; 10 ppm, 120 hr) was 82%, the “Eggs Hatched No.” value ([1]; 10 ppm, 120 hr) was 112 and the “Eggs Hatched %” value ([1]; 10 ppm, 168 hr) was 20%. The “Eggs Hatched % C* (% hatch, normalized to control)” value ([1]; 10 ppm, 168 hr) was 71%, the “Eggs Hatched No.” value ([1]; 10 ppm, 168 hr) was 134 and the “Eggs Hatched %” value ([1]; 20 ppm, 24 hr) was 8%. For the same molecule, the “Eggs Hatched % C* (% hatch, normalized to control)” value ([1]; 20 ppm, 24 hr) was 80%, the “Eggs Hatched No.” value ([1]; 20 ppm, 24 hr) was 60 and the “Eggs Hatched %” value ([1]; 20 ppm, 72 hr) was 12%. For the same molecule, the “Eggs Hatched % C* (% hatch, normalized to control)” value ([1]; 20 ppm, 72 hr) was 75%, the “Eggs Hatched No.” value ([1]; 20 ppm, 72 hr) was 82 and the “Eggs Hatched %” value ([1]; 20 ppm, 120 hr) was 15%. For the same molecule, the “Eggs Hatched % C* (% hatch, normalized to control)” value ([1]; 20 ppm, 120 hr) was 68%, the “Eggs Hatched No.” value ([1]; 20 ppm, 120 hr) was 96 and the “Eggs Hatched %” value ([1]; 20 ppm, 168 hr) was 17%. For the same molecule, the “Eggs Hatched % C* (% hatch, normalized to control)” value ([1]; 20 ppm, 168 hr) was 61%, the “Eggs Hatched No.” value ([1]; 20 ppm, 168 hr) was 112 and the “Eggs Hatched %” value ([1]; 40 ppm, 24 hr) was 8%. The “Eggs Hatched % C* (% hatch, normalized to control)” value ([1]; 40 ppm, 24 hr) was 80%, the “Eggs Hatched No.” value ([1]; 40 ppm, 24 hr) was 55 and the “Eggs Hatched %” value ([1]; 40 ppm, 72 hr) was 11%. For the same molecule, the “Eggs Hatched % C* (% hatch, normalized to control)” value ([1]; 40 ppm, 72 hr) was 69%, the “Eggs Hatched No.” value ([1]; 40 ppm, 72 hr) was 69 and the “Eggs Hatched %” value ([1]; 40 ppm, 120 hr) was 13%. The “Eggs Hatched % C* (% hatch, normalized to control)” value ([1]; 40 ppm, 120 hr) was 59%, the “Eggs Hatched No.” value ([1]; 40 ppm, 120 hr) was 82 and the “Eggs Hatched %” value ([1]; 40 ppm, 168 hr) was 14%. The “Eggs Hatched % C* (% hatch, normalized to control)” value ([1]; 40 ppm, 168 hr) was 50% and the “Eggs Hatched No.” value ([1]; 40 ppm, 168 hr) was 92.
